{"source": "paper PMC4838890", "about": "“Dynamic and flexible H3K9me3 bridging via HP1β dimerization establishes a plastic state of condensed chromatin” (Nature Communications, 2016)", "key": {"[1]": {"biological_target": "fluorescein-labeled H3K9me3-peptide", "assay": "Fluorescence polarization (FP), H3K9me3 peptide", "format": "binding", "conditions": "150 mM NaCl, 10 mM triethanolamine pH 7.4, 0.1 mM EDTA, 2 mM DTT, 4°C, read-out: apparent Kd", "method": "Experiments were performed in 10 mM triethanolamine HCl (pH 7.4), 150 mM NaCl, 0.1 mM EDTA, 2 mM DTT. Titration series of 10 μl volume in 384-well plates were read multiple times on a Plate CHAMELEON II plate reader (HIDEX Oy, Turku, Finland). Multiple readings and independent titration series were averaged after data normalization. […]\nhHP1β) using mass spectrometry. For detailed listing of the identified crosslinks see Supplementary […]\n(c) Binding of the indicated hHP1β wild type (WT) and mutant proteins to a fluorescein-labeled H3K9me3-peptide was analyzed by FP at 150 mM NaCl. Apparent Kd deduced from the fitted curves are […]\n(d) Chromatin coprecipitation of hHP1β WT and mutant proteins with oligonucleosomes. Precipitated material was run on SDS-PAGE and stained with Coomassie Blue. Input, 10 %.\n(e) Oligonucleosomes at 2.5 nM were incubated with hHP1β wild type (WT) or mutant proteins at 5 µM and 150 mM NaCl (saturating conditions). DNA remaining in the supernatant after centrifugation was incubated with EtBr and measured by fluorescence reading. Data were n ormalized to DNA levels present in the input. […]\n(g) Oligonucleosomes at 6.7 nM were incubated with hHP1β wild type (WT) or mutant proteins at 5 µM and 100 mM NaCl (non-saturating conditions). DNA remaining in the supernatant after centrifugation was incubated with EtBr and measured by fluorescence reading. […]"}, "[2]": {"biological_target": "asymmetrically modified H3K9me3-mononucleosomes", "assay": "SPR, immobilized asymmetric H3K9me3 mononucleosome", "parameters": "species or system Xenopus laevis", "conditions": "SPR titration 0.024 to 50 µM, asymmetrically modified mononucleosome at 950 RU, one site-specific binding model; read-out: apparent Kd (Supplementary Fig. 8k)"}, "[3]": {"test_system": "H3KC9me3 oligonucleosomes", "assay": "Chromatin coprecipitation, H3KC9me3 oligonucleosomes", "format": "binding, Xenopus laevis", "method": "6.7 nM oligonucleosomes were incubated with 1 μM recombinant protein in 100 μl binding buffer (10 mM triethanolamine (pH 7.5), 150 mM NaCl, 5 mM MgCl2, 0.1 mM EDTA, 0.1% (v/v) Triton-X100) for 1 h on ice. Precipitated chromatin complexes were recovered by centrifugation at 16,100g for 30 min at 4°C. Pellets were washed once with 0.5 ml binding buffer and centrifuged for 15 min at 4 °C. Precipitated material was resuspended in 10 μl 1 × SDS loading buffer and boiled for 5 min before running on SDS–PAGE.\nSupplementary Table 1: Summary of conditions used in the different experiments of this study.\nexperiment result modification template Temp. [NaCl] [MgCl2]\nchromatin Fig. 1e,f; Fig. S1f-h; H3K9me3 oligo- 4 150 5"}, "[4]": {"assay": "Multimerization beyond dimer", "format": "physicochemical", "conditions": "dynamic light scattering, SAXS, protein cross-linking, nuclear magnetic resonance"}}, "data": [{"substance": "hHP1β WT: recombinant human heterochromatin protein 1β (GenBank NM_001127228), 185 aa", "values": [{"measurement": "Kd", "setting": "[1]", "value": "5 ± 2", "unit": "µM"}, {"measurement": "Kd", "setting": "[2]", "value": 7.5, "unit": "µM"}, {"measurement": "recovery with H3KC9me3 oligonucleosomes", "setting": "[3]; 6.7 nM oligonucleosomes, 1 μM protein, 150 mM NaCl, 5 mM MgCl2", "value": "bound specifically to H3K9me3 oligonucleosomes irrespective of the saturation level of the chromatin template"}, {"measurement": "molecules bound per nucleosome", "setting": "[3]; saturating protein concentrations", "value": "two"}, {"measurement": "multimerization beyond CSD-mediated dimerization", "setting": "[4]", "value": "failed to detect any multimerization of hHP1β beyond CSD-mediated dimerization"}]}]}
